Relative activity and Km data for four molecules are collected here from PMC9426524 (mBio, 2022).

The target of test [1] is Bacillus subtilis NadD (Bacillus subtilis, UniProt P54455). In kind it is biochemical.
The subject of test [2] is CoADR (JCVISYN3A_0887). In kind it is biochemical, Mycoplasma mycoides subsp. capri. As to conditions: pH 7.5.
Test [3] concerns the target T1, human DJ-1 (Homo sapiens, UniProt Q99497).
T1 construct: gene PARK7; recombinant; details in supplement
T1 sequence (Q99497 1-189 limits assumed): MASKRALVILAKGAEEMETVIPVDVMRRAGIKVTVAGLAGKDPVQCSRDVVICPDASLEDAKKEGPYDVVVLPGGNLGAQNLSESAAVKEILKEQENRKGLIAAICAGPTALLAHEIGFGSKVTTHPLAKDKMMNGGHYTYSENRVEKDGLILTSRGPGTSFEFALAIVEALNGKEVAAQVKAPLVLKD
As to the kind of experiment: deglycase assay. The test is classed as biochemical. As to conditions: cited from earlier work.

Test [4] has as its system JCVISYN3A_0400 (DJ-1 homolog). The test is classed as biochemical, Mycoplasma mycoides subsp. capri.

Chain of Bacillus subtilis NadD (P54455 whole entry): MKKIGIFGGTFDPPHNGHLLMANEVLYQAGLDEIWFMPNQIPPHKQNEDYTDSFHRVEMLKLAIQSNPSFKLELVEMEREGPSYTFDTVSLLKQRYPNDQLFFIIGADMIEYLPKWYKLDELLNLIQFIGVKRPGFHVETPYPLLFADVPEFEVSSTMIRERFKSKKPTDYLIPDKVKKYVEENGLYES

With `Nc1ncnc2c1ncn2[C@@H]1O[C@H](COP(=O)(O)OP(=O)(O)OP(=O)(O)O)[C@@H](O)[C@H]1O` [ATP], in test [1], the relative activity entry is reported as “whereas B. subtilis NadD strongly preferred ATP”. On to `CC(C)(COP(=O)(O)OP(=O)(O)OC[C@H]1O[C@@H](n2cnc3c(N)ncnc32)[C@H](O)[C@@H]1OP(=O)(O)O)[C@@H](O)C(=O)NCCC(=O)NCCSSCCNC(=O)CCNC(=O)[C@H](O)C(C)(C)COP(=O)(O)OP(=O)(O)OC[C@H]1O[C@@H](n2cnc3c(N)ncnc32)[C@H](O)[C@@H]1OP(=O)(O)O` [CoAD], for which the Km in test [2] came to 170 µM. Regarding `CC(=O)C(O)SCCNC(=O)CCNC(=O)[C@H](O)C(C)(C)COP(=O)(O)OP(=O)(O)OC[C@H]1O[C@@H](n2cnc3c(N)ncnc32)[C@H](O)[C@@H]1OP(=O)(O)O` (stereo partly shown) [methylglyoxal-CoA hemithioacetal], the Km in test [3] is 144 ± 64 µM. Consider `CC(=O)C=O` [methylglyoxal], for which the Km in test [4] amounted to 1230 ± 300 µM.

For orientation: Km means the concentration of substrate that gives half-maximal velocity.
